Source: PubChem BioAssay (NCI)
Several values for one entry are separate records, joined by “and”; a condition that tells them apart may be missing. Equal values may be shown once.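 A five-concentration, 48-hour dose response in 96-well plates underlies each endpoint, interpolated linearly between surrounding concentrations. The concentration for 50% growth inhibition is given as GI50. At the TGI there is no net growth.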

Legend:
Assay in all cases: DTP human tumour cell line panel, 48 h
HCC-2998 colon = test system: HCC-2998 colon
HS 578T breast = test system: HS 578T breast
HT29 colon = test system: HT29 colon
IGROV1 ovarian = test system: IGROV1 ovarian
M14 melanoma = test system: M14 melanoma
MDA-MB-435 = test system: MDA-MB-435
MOLT-4 leukemia = test system: MOLT-4 leukemia
NCI-H226 lung = test system: NCI-H226 lung
TK-10 renal = test system: TK-10 renal
U251 CNS = test system: U251 CNS

For `CN(O)c1nc(N(C)O)nc(N2CCOCC2)n1`, the GI50 (HCC-2998 colon) was 8.75 µM, the TGI (HCC-2998 colon) was over 100 µM and the GI50 (HS 578T breast) was 64.2 µM. The TGI (HS 578T breast) was over 100 µM, the GI50 (HT29 colon) was 4670 nM and the TGI (HT29 colon) was over 100 µM. For the same molecule, the GI50 (IGROV1 ovarian) was 2270 nM, the TGI (IGROV1 ovarian) was over 100 µM and the GI50 (M14 melanoma) was 2920 nM. The TGI (M14 melanoma) was 57 µM, the GI50 (MDA-MB-435) was 6600 nM and the TGI (MDA-MB-435) was over 100 µM. The GI50 (MOLT-4 leukemia) was 7.09 µM, the TGI (MOLT-4 leukemia) was over 100 µM and the GI50 (NCI-H226 lung) was 7.64 µM. For the same molecule, the TGI (NCI-H226 lung) was over 100 µM, the GI50 (TK-10 renal) was 5890 nM and the TGI (TK-10 renal) was over 100 µM. For the same molecule, the GI50 (U251 CNS) was 1.25 µM and the TGI (U251 CNS) was over 100 µM.
Work on `CN[C@@H](C)C(=O)N[C@H](C(=O)N1CCC[C@H]1C(=O)Nc1snnc1-c1ccccc1)C1CCCCC1` yielded a GI50 (HCC-2998 colon) of 25.6 µM, a TGI (HCC-2998 colon) of 60.8 µM and a GI50 (HS 578T breast) of 72.8 µM. For the same molecule, the TGI (HS 578T breast) was over 100 µM, the GI50 (HT29 colon) was 31700 nM and the TGI (HT29 colon) was over 67.3 µM. The GI50 (IGROV1 ovarian) was 76900 nM, the TGI (IGROV1 ovarian) was over 100 µM and the GI50 (M14 melanoma) was 24600 nM. The TGI (M14 melanoma) was 55.8 µM, the GI50 (MDA-MB-435) was 32100 nM and the TGI (MDA-MB-435) was over 100 µM. For the same molecule, the GI50 (MOLT-4 leukemia) was 36.6 µM, the TGI (MOLT-4 leukemia) was over 100 µM and the GI50 (NCI-H226 lung) was over 100 µM. The TGI (NCI-H226 lung) was over 100 µM, the GI50 (TK-10 renal) was over 59900 nM and the TGI (TK-10 renal) was over 94.9 µM. The GI50 (U251 CNS) was 36.3 µM and the TGI (U251 CNS) was over 100 µM.
In the case of `COc1cc(C[C@H]2c3cc(OC)c(OC)cc3CCN2C)c(Oc2cc3c(cc2OC)-c2c(OC)c(OC)cc4c2[C@H](C3)N(C)CC4)cc1OC`, the GI50 (HCC-2998 colon) is reported as 4.9 µM, the TGI (HCC-2998 colon) is reported as 15.1 µM and 14.4 µM and the TGI (HS 578T breast) is reported as 13.1 µM. For the same molecule, the GI50 (HT29 colon) was 4050 nM, the TGI (HT29 colon) was 17.4 µM and 14.6 µM and the GI50 (IGROV1 ovarian) was 14200 nM. The TGI (IGROV1 ovarian) was 32.6 µM and 28.3 µM, the GI50 (M14 melanoma) was 1900 nM and the TGI (M14 melanoma) was 4.36 µM and 3.48 µM. For the same molecule, the TGI (MDA-MB-435) was 12.5 µM, the GI50 (MOLT-4 leukemia) was 4.06 µM and the TGI (MOLT-4 leukemia) was 20.4 µM and 12.2 µM. The GI50 (NCI-H226 lung) was 19.7 µM, the TGI (NCI-H226 lung) was 29.4 µM and 34.6 µM and the GI50 (TK-10 renal) was 15700 nM. For the same molecule, the TGI (TK-10 renal) was 12.9 µM and 29.2 µM, the GI50 (U251 CNS) was 10.7 µM and the TGI (U251 CNS) was 8.95 µM and 22.7 µM.
Work on `COC(=O)c1nc(-c2ccccc2)oc1S(=O)(=O)Cc1ccccc1` yielded a GI50 (HCC-2998 colon) of 19 µM, a TGI (HCC-2998 colon) of 36.3 µM and a GI50 (HS 578T breast) of 19.2 µM. For the same molecule, the TGI (HS 578T breast) was 60.1 µM, the GI50 (HT29 colon) was 2440 nM and the TGI (HT29 colon) was 5.79 µM. The GI50 (IGROV1 ovarian) was 2750 nM, the TGI (IGROV1 ovarian) was 7.21 µM and the GI50 (M14 melanoma) was 3870 nM. The TGI (M14 melanoma) was 16.3 µM, the GI50 (MDA-MB-435) was 11100 nM and the TGI (MDA-MB-435) was 23.6 µM. It also gave a GI50 (MOLT-4 leukemia) of 2.11 µM, a TGI (MOLT-4 leukemia) of 5.57 µM and a GI50 (NCI-H226 lung) of 13.9 µM. For the same molecule, the TGI (NCI-H226 lung) was 31.4 µM, the GI50 (TK-10 renal) was 1740 nM and the TGI (TK-10 renal) was 3.19 µM. It also gave a GI50 (U251 CNS) of 15.5 µM and a TGI (U251 CNS) of 29 µM.
`C=C1C(=O)O[C@H]2[C@H]1CC/C(COC(=O)NCc1ccc(Cn3c(=O)sn(CCCl)c3=O)cc1)=C\CC[C@@]1(C)O[C@@H]21` showed a GI50 (HCC-2998 colon) of 17.3 µM, a TGI (HCC-2998 colon) of 33 µM and a GI50 (HS 578T breast) of 12.1 µM. For the same molecule, the TGI (HS 578T breast) was 55.9 µM, the GI50 (HT29 colon) was 2160 nM and the TGI (HT29 colon) was 4.77 µM. For the same molecule, the GI50 (IGROV1 ovarian) was 2500 nM, the TGI (IGROV1 ovarian) was 6.79 µM and the GI50 (M14 melanoma) was 1820 nM. For the same molecule, the TGI (M14 melanoma) was 3.65 µM, the GI50 (MDA-MB-435) was 1740 nM and the TGI (MDA-MB-435) was 3.47 µM. For the same molecule, the GI50 (MOLT-4 leukemia) was 1.85 µM, the TGI (MOLT-4 leukemia) was 5.92 µM and the GI50 (NCI-H226 lung) was 17.2 µM. For the same molecule, the TGI (NCI-H226 lung) was 37.3 µM, the GI50 (TK-10 renal) was 1770 nM and the TGI (TK-10 renal) was 3.43 µM. It also gave a GI50 (U251 CNS) of 6.79 µM and a TGI (U251 CNS) of 20.2 µM.
`CCN(CC)CCCC(C)Nc1ccnc2cc(Oc3ccccc3)ccc12` (stereo unspecified) was tested, and the GI50 (HCC-2998 colon) was 2.34 µM and 6.92 µM, the TGI (HCC-2998 colon) was 7.94 µM and 36.9 µM and the GI50 (HS 578T breast) was 5.5 µM and 16.7 µM. For the same molecule, the TGI (HS 578T breast) was 24.3 µM and 56.5 µM, the GI50 (HT29 colon) was 627 nM and 1120 nM and the TGI (HT29 colon) was 8.37 µM and 12 µM. For the same molecule, the GI50 (IGROV1 ovarian) was 3550 nM and 14100 nM, the TGI (IGROV1 ovarian) was 16.9 µM and > 100 µM and the GI50 (M14 melanoma) was 1770 nM and 1790 nM. For the same molecule, the TGI (M14 melanoma) was 3.5 µM and 3.35 µM, the GI50 (MDA-MB-435) was 2380 nM and the TGI (MDA-MB-435) was 6.21 µM and 7.27 µM. For the same molecule, the GI50 (MOLT-4 leukemia) was 4.32 µM and 9.05 µM, the TGI (MOLT-4 leukemia) was 17.8 µM and 82.8 µM and the GI50 (NCI-H226 lung) was 8.4 µM and 14.9 µM. For the same molecule, the TGI (NCI-H226 lung) was 31.1 µM and > 100 µM, the GI50 (TK-10 renal) was 2580 nM and 3230 nM and the TGI (TK-10 renal) was 8.34 µM and 10.3 µM. For the same molecule, the GI50 (U251 CNS) was 2.71 µM and 5.51 µM and the TGI (U251 CNS) was 9.31 µM and 19.8 µM.
For `C=C1CCC2C3(C)COC(c4ccc(N(C)C)cc4)OC3CCC2(C)C1C/C=C1/C(=O)OCC1O` (stereo unspecified), the GI50 (HCC-2998 colon) was 7.69 µM, the TGI (HCC-2998 colon) was 19.8 µM and the GI50 (HS 578T breast) was 2.13 µM. It also gave a TGI (HS 578T breast) of 6.69 µM, a GI50 (HT29 colon) of 2430 nM and a TGI (HT29 colon) of 6.19 µM. For the same molecule, the GI50 (IGROV1 ovarian) was 2440 nM, the TGI (IGROV1 ovarian) was 6.02 µM and the GI50 (M14 melanoma) was 4100 nM. For the same molecule, the TGI (M14 melanoma) was 16.7 µM, the GI50 (MDA-MB-435) was 2880 nM and the TGI (MDA-MB-435) was 10.5 µM. The GI50 (MOLT-4 leukemia) was 1.97 µM, the TGI (MOLT-4 leukemia) was 5.68 µM and the GI50 (NCI-H226 lung) was 6.09 µM. For the same molecule, the TGI (NCI-H226 lung) was 18.2 µM, the GI50 (TK-10 renal) was 8000 nM and the TGI (TK-10 renal) was 21 µM. For the same molecule, the GI50 (U251 CNS) was 2.1 µM and the TGI (U251 CNS) was 5.21 µM.
In the case of `Cc1cc(O)c(C(C)C)cc1S(=O)(=O)O` (tested in a mixture with another compound), the GI50 (HCC-2998 colon) is reported as 0.229 µM, the GI50 (HS 578T breast) is reported as 0.281 µM and the TGI (HS 578T breast) is reported as 1.92 µM. For the same molecule, the GI50 (HT29 colon) was 337 nM, the TGI (HT29 colon) was 1.1 µM and the GI50 (IGROV1 ovarian) was 554 nM. For the same molecule, the GI50 (M14 melanoma) was 296 nM, the GI50 (MDA-MB-435) was 171 nM and the TGI (MDA-MB-435) was 0.464 µM. The GI50 (MOLT-4 leukemia) was 0.401 µM, the GI50 (NCI-H226 lung) was 0.85 µM and the GI50 (TK-10 renal) was 1220 nM. The GI50 (U251 CNS) was 0.368 µM.
For `C=C(C)C(=O)O[C@H]1CC(=C)[C@@H]2C[C@H](O)[C@](O)(CCl)[C@@H]2[C@H]2OC(=O)C(=C)[C@@H]21`, the GI50 (HCC-2998 colon) was 17.6 µM, the TGI (HCC-2998 colon) was 32.4 µM and the GI50 (HS 578T breast) was 11.6 µM. The TGI (HS 578T breast) was 46.1 µM, the GI50 (HT29 colon) was 2890 nM and the TGI (HT29 colon) was 7.42 µM. It also gave a GI50 (IGROV1 ovarian) of 2710 nM, a TGI (IGROV1 ovarian) of 10.4 µM and a GI50 (M14 melanoma) of 2780 nM. It also gave a TGI (M14 melanoma) of 6.88 µM, a GI50 (MDA-MB-435) of 1990 nM and a TGI (MDA-MB-435) of 3.77 µM. It also gave a GI50 (MOLT-4 leukemia) of 1.44 µM, a TGI (MOLT-4 leukemia) of 3.84 µM and a GI50 (NCI-H226 lung) of 19.6 µM. It also gave a TGI (NCI-H226 lung) of 46.2 µM, a GI50 (TK-10 renal) of 512 nM and a TGI (TK-10 renal) of 1.82 µM. It also gave a GI50 (U251 CNS) of 2.47 µM and a TGI (U251 CNS) of 6.14 µM.
`N#CC(NC12CC3CC(CC(C3)C1)C2)c1ccc2c(c1)OCO2` (stereo unspecified) showed a TGI (HCC-2998 colon) of over 100 µM, a TGI (HS 578T breast) of over 100 µM and a TGI (HT29 colon) of over 100 µM. For the same molecule, the TGI (IGROV1 ovarian) was over 100 µM, the TGI (M14 melanoma) was over 100 µM and the TGI (MDA-MB-435) was over 100 µM. For the same molecule, the TGI (MOLT-4 leukemia) was over 100 µM, the TGI (NCI-H226 lung) was over 100 µM and the TGI (TK-10 renal) was over 100 µM. It also gave a TGI (U251 CNS) of over 100 µM.
